Key:
BACE1 [1] = molecular target: T1, BACE1 (Homo sapiens (Human), UniProt P56817); assay: In vitro enzymatic BACE1 FRET assay; type: biochemical; settings: read-out: IC50 IP (μM) BACE1 Enzyme
Target sequence in this assay (P56817 46-501): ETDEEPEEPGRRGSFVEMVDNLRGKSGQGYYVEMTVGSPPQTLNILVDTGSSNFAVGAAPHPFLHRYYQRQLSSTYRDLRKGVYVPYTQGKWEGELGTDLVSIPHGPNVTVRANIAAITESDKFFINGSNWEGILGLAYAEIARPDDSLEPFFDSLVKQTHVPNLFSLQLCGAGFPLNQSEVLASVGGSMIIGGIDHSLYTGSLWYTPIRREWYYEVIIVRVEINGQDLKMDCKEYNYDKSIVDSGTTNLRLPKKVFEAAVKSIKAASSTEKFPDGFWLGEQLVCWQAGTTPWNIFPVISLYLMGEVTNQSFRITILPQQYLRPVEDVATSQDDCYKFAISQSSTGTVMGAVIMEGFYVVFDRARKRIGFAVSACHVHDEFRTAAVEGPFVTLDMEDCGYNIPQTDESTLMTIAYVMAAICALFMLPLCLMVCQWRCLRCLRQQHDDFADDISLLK
Text: (§1) In Vitro Enzymatic BACE1 and BACE2 FRET (Fluorescence Resonance Energy Transfer) Assays (Enzyme Assay Data in Table 1)

BACE1 [2] = molecular target: T1, BACE1; assay: BACE1 cell assay; type: cell-based
Target sequence in this assay (P56817 46-501, species assumed): as the sequence (P56817 46-501) above

BACE2 = BACE2 (Homo sapiens (Human), UniProt Q9Y5Z0); assay: In vitro enzymatic BACE2 FRET assay; type: biochemical; settings: read-out: IC50 IP (μM) BACE2 Enzyme
Text: as §1

Cathepsin D (CatD) = Cathepsin D (CatD) (Homo sapiens (Human), UniProt P07339); assay: CatD assay; type: biochemical; settings: read-out: IC50 IP (μM) CatD
Sequence of Cathepsin D (CatD) (P07339 65-412, species assumed): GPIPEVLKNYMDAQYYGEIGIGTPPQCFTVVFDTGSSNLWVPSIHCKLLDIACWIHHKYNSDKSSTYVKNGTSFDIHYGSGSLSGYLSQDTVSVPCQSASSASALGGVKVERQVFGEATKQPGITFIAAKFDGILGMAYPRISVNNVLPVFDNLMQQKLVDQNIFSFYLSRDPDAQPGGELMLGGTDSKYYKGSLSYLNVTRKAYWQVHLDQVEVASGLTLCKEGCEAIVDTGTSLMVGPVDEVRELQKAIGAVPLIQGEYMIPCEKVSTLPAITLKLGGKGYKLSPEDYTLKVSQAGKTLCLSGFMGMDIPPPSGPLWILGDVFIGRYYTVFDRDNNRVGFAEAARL

[3] = read-out: IC50 IP (μM) BACE1 Cell

Sequence of BACE2 (Q9Y5Z0 63-518): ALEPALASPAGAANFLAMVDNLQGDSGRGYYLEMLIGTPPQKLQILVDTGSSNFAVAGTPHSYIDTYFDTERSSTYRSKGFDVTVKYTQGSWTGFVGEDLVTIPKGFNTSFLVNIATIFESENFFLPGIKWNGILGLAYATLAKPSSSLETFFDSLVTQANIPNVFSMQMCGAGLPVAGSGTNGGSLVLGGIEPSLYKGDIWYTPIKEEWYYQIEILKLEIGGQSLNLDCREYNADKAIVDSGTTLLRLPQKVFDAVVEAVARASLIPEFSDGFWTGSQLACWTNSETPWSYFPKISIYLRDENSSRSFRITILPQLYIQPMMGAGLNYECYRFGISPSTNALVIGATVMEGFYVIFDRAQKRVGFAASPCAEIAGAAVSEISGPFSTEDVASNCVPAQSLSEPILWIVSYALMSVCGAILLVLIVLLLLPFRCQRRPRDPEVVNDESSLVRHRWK

Molecule CC#CCOc1cnc(/C(F)=C/c2ccc(F)c([C@@]3(C)N=C(N)S[C@@]4(C(C)=O)C[C@H]43)c2)cn1 [Example 235, 1-((1S,5S,6S)-3-amino-5-(5-((Z)-2-(5-(but-2-yn-1-yloxy)pyrazin-2-yl)-2-fluorovinyl)-2-fluorophenyl)-5-methyl-2-thia-4-azabicyclo[4.1.0]hept-3-en-1-yl)ethanone] has an IC50 (BACE1 [1]) of 0.0022 µM, an IC50 (BACE1 [2]; [3]) of 0.0058 µM and an IC50 (BACE2) of 0.247 µM. The IC50 (Cathepsin D (CatD)) was 587 µM.
In the case of C[C@]1(c2cc(/C=C(\F)c3ccc(C#N)cn3)ccc2F)N=C(N)S[C@@]2(C(=O)N3CCOC4(CC4)C3)C[C@H]21 [Example 318, 6-((Z)-2-(3-((1S,5S,6S)-3-amino-5-methyl-1-(4-oxa-7-azaspiro[2.5]octane-7-carbonyl)-2-thia-4-azabicyclo[4.1.0]hept-3-en-5-yl)-4-fluorophenyl)-1-fluorovinyl)nicotinonitrile], the IC50 (BACE1 [1]) is reported as 0.0029 µM, the IC50 (BACE1 [2]; [3]) is reported as 0.0033 µM and the IC50 (BACE2) is reported as 0.051 µM. It also gave an IC50 (Cathepsin D (CatD)) of 108 µM.
With CC1COC([C@]23C[C@H]2[C@@](C)(c2cc(/C=C(\F)c4ccc(C#N)cn4)ccc2F)N=C(N)S3)=N1 (stereo partly drawn) [Example 342, 6-((Z)-2-(3-((1S,5S,6S)-3-amino-5-methyl-1-(4-methyl-4,5-dihydrooxazol-2-yl)-2-thia-4-azabicyclo[4.1.0]hept-3-en-5-yl)-4-fluorophenyl)-1-fluorovinyl)nicotinonitrile] the IC50 (BACE1 [1]) was 0.122 µM, the IC50 (BACE1 [2]; [3]) was 0.0073 µM and the IC50 (BACE2) was 0.7 µM. For the same molecule, the IC50 (Cathepsin D (CatD)) was 400 µM.
For C[C@]1(c2cc(/C=C(\F)c3ccc(C#N)cn3)cnc2F)N=C(N)S[C@@]2(C(=O)N3CC[C@H](F)C3)C[C@H]21 [Example 182, 6-((Z)-2-(5-((1S,5S,6S)-3-amino-1-((S)-3-fluoropyrrolidine-1-carbonyl)-5-methyl-2-thia-4-azabicyclo[4.1.0]hept-3-en-5-yl)-6-fluoropyridin-3-yl)-1-fluorovinyl)nicotinonitrile], the IC50 (BACE1 [1]) was 0.0024 µM, the IC50 (BACE1 [2]; [3]) was 0.007 µM and the IC50 (BACE2) was 0.045 µM. It also gave an IC50 (Cathepsin D (CatD)) of 776 µM.
CN(C)C(=O)[C@]12C[C@H]1[C@@](C)(c1cc(/C(F)=C/c3ccc(Cl)cn3)ccc1F)N=C(N)S2 [Example 185, (1S,5S,6S)-3-amino-5-(5-((Z)-2-(5-chloropyridin-2-yl)-1-fluorovinyl)-2-fluorophenyl)-N,N,5-trimethyl-2-thia-4-azabicyclo[4.1.0]hept-3-ene-1-carboxamide] gave an IC50 (BACE1 [1]) of 0.132 µM, an IC50 (BACE1 [2]) of 0.695 µM and an IC50 (BACE2) of 0.0764 µM. It also gave an IC50 (Cathepsin D (CatD)) of 172 µM.
For CC1CCN1C(=O)[C@]12C[C@H]1[C@@](C)(c1cc(/C=C(\F)c3ccc(Cl)cn3)ccc1F)N=C(N)S2 (stereo partly drawn) [Example 116, ((1S,5S,6S)-3-amino-5-(5-((Z)-2-(5-chloropyridin-2-yl)-2-fluorovinyl)-2-fluorophenyl)-5-methyl-2-thia-4-azabicyclo[4.1.0]hept-3-en-1-yl)(2-methylazetidin-1-yl)methanone], the IC50 (BACE1 [1]) was 0.00623 µM, the IC50 (BACE1 [2]; [3]) was 0.00929 µM and the IC50 (BACE2) was 0.0119 µM. For the same molecule, the IC50 (Cathepsin D (CatD)) was 107 µM.
With C[C@@H]1CN=C([C@]23C[C@H]2[C@@](C)(c2cc(/C=C(\F)c4ccc(C#N)cn4)ccc2F)N=C(N)S3)O1 [Example 343, 6-((Z)-2-(3-((1S,5S,6S)-3-amino-5-methyl-1-((R)-5-methyl-4,5-dihydrooxazol-2-yl)-2-thia-4-azabicyclo[4.1.0]hept-3-en-5-yl)-4-fluorophenyl)-1-fluorovinyl)nicotinonitrile] the IC50 (BACE1 [1]) was 0.0826 µM, the IC50 (BACE1 [2]; [3]) was 0.0031 µM and the IC50 (BACE2) was 0.692 µM. It also gave an IC50 (Cathepsin D (CatD)) of 884 µM.
With CNC(=O)[C@]12C[C@H]1[C@@](C)(c1cc(/C=C(\F)c3cnc(C#CCO)cn3)ccc1F)N=C(N)S2 [Example 362, (1S,5S,6S)-3-amino-5-(2-fluoro-5-((Z)-2-fluoro-2-(5-(3-hydroxyprop-1-yn-1-yl)pyrazin-2-yl)vinyl)phenyl)-N,5-dimethyl-2-thia-4-azabicyclo[4.1.0]hept-3-ene-1-carboxamide] the IC50 (BACE1 [1]) was 0.004 µM, the IC50 (BACE1 [2]; [3]) was 0.104 µM and the IC50 (BACE2) was 0.365 µM. For the same molecule, the IC50 (Cathepsin D (CatD)) was 349 µM.
COC[C@]12C[C@H]1[C@@](C)(c1cc(/C=C(\F)c3cnc(OCC4COC4)cn3)ccc1F)N=C(N)S2 [Example 272] was tested, and the IC50 (BACE1 [1]) was 3.04 µM, the IC50 (BACE1 [2]; [3]) was 2.53 µM and the IC50 (BACE2) was 4.02 µM. For the same molecule, the IC50 (Cathepsin D (CatD)) was 864 µM.
With Cc1cnc([C@]23C[C@H]2[C@@](C)(c2cc(/C=C(\F)c4ccc(C#N)cn4)ccc2F)N=C(N)S3)o1 [Example 344, 6-((Z)-2-(3-((1S,5S,6S)-3-amino-5-methyl-1-(5-methyloxazol-2-yl)-2-thia-4-azabicyclo[4.1.0]hept-3-en-5-yl)-4-fluorophenyl)-1-fluorovinyl)nicotinonitrile] the IC50 (BACE1 [1]) was 0.0033 µM, the IC50 (BACE1 [2]; [3]) was 0.0285 µM and the IC50 (BACE2) was 0.18 µM. For the same molecule, the IC50 (Cathepsin D (CatD)) was 227 µM.
COC[C@]12C[C@H]1[C@@](C)(c1cc(/C=C(\F)c3cnc(OCC(C)C)cn3)ccc1F)N=C(N)S2 [Example 274] showed an IC50 (BACE1 [1]) of 1.9 µM, an IC50 (BACE1 [2]; [3]) of 4.26 µM and an IC50 (BACE2) of 2.19 µM. For the same molecule, the IC50 (Cathepsin D (CatD)) was 181 µM.
Work on CN(C)C(=O)[C@]12C[C@H]1[C@@](C)(c1cc(/C=C(\F)c3cnc(C#N)nc3)ccc1F)N=C(N)S2 [Example 173, (1S,5S,6S)-3-amino-5-(5-((Z)-2-(2-cyanopyrimidin-5-yl)-2-fluorovinyl)-2-fluorophenyl)-N,N,5-trimethyl-2-thia-4-azabicyclo[4.1.0]hept-3-ene-1-carboxamide] yielded an IC50 (BACE1 [1]) of 0.15 µM, an IC50 (BACE1 [2]; [3]) of 0.924 µM and an IC50 (BACE2) of 0.3 µM. It also gave an IC50 (Cathepsin D (CatD)) of 225 µM.
For COC[C@]12C[C@H]1[C@@](CF)(c1cc(/C=C(/F)c3ccc(Cl)cn3)ccc1F)N=C(N)S2 [Example 101, (1S,5S,6S)-5-(5-((E)-2-(5-chloropyridin-2-yl)-2-fluorovinyl)-2-fluorophenyl)-5-(fluoromethyl)-1-(methoxymethyl)-2-thia-4-azabicyclo[4.1.0]hept-3-en-3-amine], the IC50 (BACE1 [1]) was 0.303 µM, the IC50 (BACE1 [2]; [3]) was 1.6 µM and the IC50 (BACE2) was 0.281 µM. It also gave an IC50 (Cathepsin D (CatD)) of 154 µM.
C[C@]1(c2cc(/C=C(\F)c3ccc(Cl)cn3)ccc2F)N=C(N)S[C@@]2(CC#N)C[C@H]21 [Example 114, 2-((1R,5S,6S)-3-amino-5-(5-((Z)-2-(5-chloropyridin-2-yl)-2-fluorovinyl)-2-fluorophenyl)-5-methyl-2-thia-4-azabicyclo[4.1.0]hept-3-en-1-yl)acetonitrile] showed an IC50 (BACE1 [1]) of 0.021 µM, an IC50 (BACE1 [2]; [3]) of 0.446 µM and an IC50 (BACE2) of 0.0555 µM. For the same molecule, the IC50 (Cathepsin D (CatD)) was 668 µM.
CNC(=O)[C@]12C[C@H]1[C@@](C)(c1cc(/C=C(\F)c3cnc(OCc4cnco4)cn3)ccc1F)N=C(N)S2 [Example 226, (1S,5S,6S)-3-amino-5-(2-fluoro-5-((Z)-2-fluoro-2-(5-(oxazol-5-ylmethoxy)pyrazin-2-yl)vinyl)phenyl)-N,5-dimethyl-2-thia-4-azabicyclo[4.1.0]hept-3-ene-1-carboxamide] was tested, and the IC50 (BACE1 [1]) was 0.126 µM, the IC50 (BACE1 [2]) was 0.608 µM and the IC50 (BACE2) was 0.285 µM. It also gave an IC50 (Cathepsin D (CatD)) of 18.5 µM.
Work on C[C@]1(c2cc(/C=C(\F)c3cnc(C#C[Si](C)(C)C)cn3)ccc2F)N=C(N)S[C@@]2(C(=O)N3CCOCC3)C[C@H]21 [Example 349, ((1S,5S,6S)-3-amino-5-(2-fluoro-5-((Z)-2-fluoro-2-(5-((trimethylsilyl)ethynyl)pyrazin-2-yl)vinyl)phenyl)-5-methyl-2-thia-4-azabicyclo[4.1.0]hept-3-en-1-yl)(morpholino)methanone] yielded an IC50 (BACE1 [1]) of 0.003 µM, an IC50 (BACE1 [2]; [3]) of 0.034 µM and an IC50 (BACE2) of 0.253 µM. The IC50 (Cathepsin D (CatD)) was 78.1 µM.
C[C@H]1CN(C(=O)[C@]23C[C@H]2[C@@](C)(c2cc(/C=C(\F)c4ccc(C#N)cn4)ccc2F)N=C(N)S3)[C@@H](C)CO1 [Example 329, 6-((Z)-2-(3-((1S,5S,6S)-3-amino-1-((2S,5S)-2,5-dimethylmorpholine-4-carbonyl)-5-methyl-2-thia-4-azabicyclo[4.1.0]hept-3-en-5-yl)-4-fluorophenyl)-1-fluorovinyl)nicotinonitrile] was tested, and the IC50 (BACE1 [1]) was 0.0045 µM, the IC50 (BACE1 [2]; [3]) was 0.0035 µM and the IC50 (BACE2) was 0.124 µM. It also gave an IC50 (Cathepsin D (CatD)) of 73.9 µM.
Molecule CCCC#Cc1ccc(/C(F)=C/c2ccc(F)c([C@@]3(C)N=C(N)S[C@@]4(C(=O)NC)C[C@H]43)c2)nc1 [Example 361, (1S,5S,6S)-3-amino-5-(2-fluoro-5-((Z)-2-fluoro-2-(5-(pent-1-yn-1-yl)pyridin-2-yl)vinyl)phenyl)-N,5-dimethyl-2-thia-4-azabicyclo[4.1.0]hept-3-ene-1-carboxamide] has an IC50 (BACE1 [1]) of 0.058 µM, an IC50 (BACE1 [2]; [3]) of 1.41 µM and an IC50 (BACE2) of 0.49 µM. For the same molecule, the IC50 (Cathepsin D (CatD)) was 34 µM.
Cc1nnc(COc2cnc(/C(F)=C/c3ccc(F)c([C@@]4(C)N=C(N)S[C@@]5(C(=O)N(C)C)C[C@H]54)c3)cn2)o1 [Example 216, (1S,5S,6S)-3-amino-5-(2-fluoro-5-((Z)-2-fluoro-2-(5-((5-methyl-1,3,4-oxadiazol-2-yl)methoxy)pyrazin-2-yl)vinyl)phenyl)-N,N,5-trimethyl-2-thia-4-azabicyclo[4.1.0]hept-3-ene-1-carboxamide] gave an IC50 (BACE1 [1]) of 0.007 µM, an IC50 (BACE1 [2]; [3]) of 0.005 µM and an IC50 (BACE2) of 0.072 µM. For the same molecule, the IC50 (Cathepsin D (CatD)) was 391 µM.
CN(C)C(=O)[C@]12C[C@H]1[C@@](C)(c1cc(/C(F)=C/c3ccc(C#N)cc3)ccc1F)N=C(N)S2 [Example 221, (1S,5S,6S)-3-amino-5-(5-((Z)-2-(4-cyanophenyl)-1-fluorovinyl)-2-fluorophenyl)-N,N,5-trimethyl-2-thia-4-azabicyclo[4.1.0]hept-3-ene-1-carboxamide] showed an IC50 (BACE1 [1]) of 0.128 µM, an IC50 (BACE1 [2]) of 0.575 µM and an IC50 (BACE2) of 0.302 µM. It also gave an IC50 (Cathepsin D (CatD)) of 48.6 µM.
In the case of C[C@]1(c2cc(/C=C(\F)c3ccc(Cl)cn3)ccc2F)N=C(N)S[C@]2(CO)[C@H]1C2(F)F [Example 255, ((1S,5S,6R)-3-amino-5-(5-((Z)-2-(5-chloropyridin-2-yl)-2-fluorovinyl)-2-fluorophenyl)-7,7-difluoro-5-methyl-2-thia-4-azabicyclo[4.1.0]hept-3-en-1-yl)methanol], the IC50 (BACE1 [1]) is reported as 0.0477 µM, the IC50 (BACE1 [2]) is reported as 0.505 µM and the IC50 (BACE2) is reported as 0.056 µM. For the same molecule, the IC50 (Cathepsin D (CatD)) was 235 µM.

Source: US10246429B2, “Vinyl fluoride cyclopropyl fused thiazin-2-amine compounds as beta-secretase inhibitors and methods of use” (AMGEN INC., priority 2015, dated 2019)
